Measured values: ChEMBL document CHEMBL2016437, “Synthesis and biological evaluation of novel small non-peptidic HIV-1 PIs: the benzothiophene ring as an effective moiety” (Bioorg Med Chem Lett, 2012)
The source made the active and inactive calls. No cut-off for these calls is given here.

Columns and labels:
[1] = molecular target: Protease (Human immunodeficiency virus 1, UniProt Q9YQ12); test: Inhibition of wild type HIV-1 protease assessed as hydrolysis of fluorogenic substrate Abz-Thr-Ile-Nle-Phe(NO2)-Gln-Arg after 10 mins by fluorescence assay
[2] = test system: Human immunodeficiency virus type 1 protease (Human immunodeficiency virus 1), Q72874 [V82A]; test: Inhibition of HIV-1 protease V82A mutant assessed as hydrolysis of fluorogenic substrate Abz-Thr-Ile-Nle-Phe(NO2)-Gln-Arg after 10 mins by fluorescence assay
[3] = test system: Human immunodeficiency virus type 1 protease (Human immunodeficiency virus 1), Q72874 [V32I]; test: Inhibition of HIV-1 protease V32I mutant assessed as hydrolysis of fluorogenic substrate Abz-Thr-Ile-Nle-Phe(NO2)-Gln-Arg after 10 mins by fluorescence assay
[4] = Cytotoxicity against human U937 cells after 1 to 4 hrs by MTS assay; format: cell-based, U-937

Sequence of Protease (Q9YQ12 whole entry): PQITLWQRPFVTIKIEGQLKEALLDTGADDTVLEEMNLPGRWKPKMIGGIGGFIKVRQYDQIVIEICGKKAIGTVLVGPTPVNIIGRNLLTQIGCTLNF

IC50 [1]	SMILES	inhibition [2]	inhibition [3]	CC50 [4]
> 1000 µM	COc1ccc(S(=O)(=O)N(CC(C)C)C[C@@H](O)COc2ccc3c(ccn3C)c2)cc1OC	–	–	–
0.009 µM	Cc1c(O)cccc1C(=O)N[C@@H](CSc1ccccc1)[C@H](O)CN1C[C@H]2CCCC[C@H]2C[C@H]1C(=O)NC(C)(C)C [NELFINAVIR]	–	–	–
> 1000 µM	COc1ccc(S(=O)(=O)N(CC(C)C)C[C@@H](O)COc2ccc3c(ccn3Cc3ccccc3)c2)cc1OC	–	–	–
130 µM	COc1ccc(S(=O)(=O)N(CC(C)C)C[C@@H](O)COc2ccc3occc3c2)cc1OC	–	–	–
1 µM	COc1ccc(S(=O)(=O)N(CC(C)C)C[C@@H](O)COc2ccc3[nH]ccc3c2)cc1OC	–	–	–

SMILES	IC50 [1]	inhibition [2]	inhibition [3]	CC50 [4]
COc1ccc(S(=O)(=O)N(CC(C)C)C[C@@H](O)COc2ccc3sccc3c2)cc1OC	0.06 µM	inactive	inactive	> 90 µM
